According to patent US20070225363A1, “Methods and Agents for Inhibiting Dynamin-Dependent Endocytosis” (the University of Newcastle Research Associates Ltd., priority 2003, published 2007):
“Also recorded” adds a separate entry of the source.

Legend:
[1] = test system: isolated rat brain nerve terminals (synaptosomes); assay: Electron microscopy of synaptosomes; type: cell-based; details: 100 μM
Method: Synaptosomes were incubated for 5 min in Krebs-like solution containing 1.2 mM Ca^2+ then stimulated with 30 mM KCl for 2 minutes. […] After stimulation, synaptosomes were pelleted in a microfuge for 1 minute at room temperature then fixed by gentle resuspension in ice-cold phosphate buffered saline supplemented with 5% glutaraldehyde. After 1 hr they were centrifuged at low speed (2500 rpm) for 5 min at room temperature to loosely pellet the synaptosomes. The pellets were washed gently 3 times with MOPs buffer with low spins (2500 rpm) for 7 minutes then gently resuspended in a 10% bourine serum albumin (BSA) in water and allowed to stand for 20 min at room temperature. The synaptosomes were then centrifuged again for 7 minutes at low speed (2500 rpm), overlaid with Karnovsky's fixative and incubated at 4° C. overnight. The pellets were subsequently rinsed and fixed in a buffered solution of osmium tetroxide for 3 hours. Synaptosomes were then rinsed and stained for 1 hour in 2% aqueous uranyl acetate prior to being dried by a series of sequential 10 minute washes: 50% ethanol plus 0.1% NaCl, 70% ethanol plus 0.1% NaCl, 95% ethanol plus 0.1% NaCl, 100% ethanol plus 0.1% NaCl twice and 100% acetone twice. […]

[2] = target: T1, dynamin I (Ovis aries, UniProt A0ACI6NZN1); assay: [α-32P]-GTP binding assay, dynamin I; parameters: species or system sheep
Method: The [α-^32P]-GTP-binding assay was performed in the wells of a 96-well microtitre plate. Dynamin (0.2 μg/well) was added to GTPase buffer and incubated for 10 min at 4 C in the dark. [α-^32P]-GTP (2 μCi/tube) was then added to the reaction and incubated for a further 10 min at 4 C. in the dark. The microtitre plate was then irradiated with a short wavelength ultraviolet lamp at […] for 30 min at a distance of 8 cm. The specificity of photolabelling was determined by comparing the labelling in the presence and absence of 1 mM cold GTP. Samples were then applied to nitrocellulose membranes by aspiration through the wells of a 24 well slot blotter. The nitrocellulose was washed 3 times with PBS and dried. Bound nucleotide was detected by a phosphorimager (Molecular Dynamics).

[3] = test system: ΔPH domain dynamin I; assay: GTPase assay with recombinant dynamin I lacking the PH domain; type: biochemical
Method: The plasmid for GST-Amph2-SH3 (muscle Amph2) (Butler et al., 1997) was provided by Pieto DeCamilli, Yale, Connecticut, USA, in pGEX2T vectors. The plasmid was grown in E. coli and the GST-Amph2-SH3 fusion protein was purified on glutathione (GSH)-Sepharose by elution with 10 mM reduced GSH in 20 mM Tris-HCl, pH 7.5, dialysed against the same buffer without GSH and stored at 4° C. Dynamin was purified from sheep brain by extraction from the peripheral membrane fraction of whole brain (Robinson et al., 1993) and affinity purification on GST-Amph2-SH3-sepharose as previously described (Marks and McMahon., 1998), yielding 8 mg protein from 250 g sheep brain. Recombinant dynamin II was expressed in insect cells and was a gift from Dr Sandra Schmid (Scripps, San Diego, Calif.). Recombinant dynamin I lacking the PH domain (dynamin PH, provided by Robin Scaife) was expressed in insect cells using baculoviral infection (Salim et al., 1996).
Dynamin GTPase activity was determined by hydrolysis of [ ? -^32P]GTP by a method modified from that described previously (Robinson et al., 1993). Briefly, purified dynamin I or dynamin II (0.2 μg/tube) was incubated in GTPase buffer (10 mM Tris, 10 mM NaCl, 2 mM Mg^2+, 0.05% Tween 80, pH 7.4, 1 μg/ml leupeptin and 0.1 mM PMSF) and a GTP cocktail containing 0.3 mM GTP and 1.3 μCi [ ? -^32P]-GTP in the presence or absence of varying concentrations of inhibitors or DMSO vehicle for 10 min at 30 C. The final assay volume was 40 μl. Dynamin activity was measured as either basal or phospholipid-stimulated with the addition of 5 μg/ml L-phosphatidylserine. The reaction was terminated with 100 μl of GTPase stop buffer (2% formic add, 8% acetic acid, pH 1.9), followed by 600 μl of acid-washed charcoal solution (7% charcoal in acidic solution (w/v)) and 100 μl BSA (5 mg/ml). After centrifuging for 5 min (13,000 rpm at room temperature), 200 μl of each supernatant was counted in a -counter for the release of ^32Pi from [ ? -^32P]-GTP. […]

[4] = target: T1, dynamin I; assay: Phospholipid binding and helix assembly (sedimentation assay); details: 10 or 100 μM, PS liposomes

T1 sequence (A0ACI6NZN1 entry or part of it): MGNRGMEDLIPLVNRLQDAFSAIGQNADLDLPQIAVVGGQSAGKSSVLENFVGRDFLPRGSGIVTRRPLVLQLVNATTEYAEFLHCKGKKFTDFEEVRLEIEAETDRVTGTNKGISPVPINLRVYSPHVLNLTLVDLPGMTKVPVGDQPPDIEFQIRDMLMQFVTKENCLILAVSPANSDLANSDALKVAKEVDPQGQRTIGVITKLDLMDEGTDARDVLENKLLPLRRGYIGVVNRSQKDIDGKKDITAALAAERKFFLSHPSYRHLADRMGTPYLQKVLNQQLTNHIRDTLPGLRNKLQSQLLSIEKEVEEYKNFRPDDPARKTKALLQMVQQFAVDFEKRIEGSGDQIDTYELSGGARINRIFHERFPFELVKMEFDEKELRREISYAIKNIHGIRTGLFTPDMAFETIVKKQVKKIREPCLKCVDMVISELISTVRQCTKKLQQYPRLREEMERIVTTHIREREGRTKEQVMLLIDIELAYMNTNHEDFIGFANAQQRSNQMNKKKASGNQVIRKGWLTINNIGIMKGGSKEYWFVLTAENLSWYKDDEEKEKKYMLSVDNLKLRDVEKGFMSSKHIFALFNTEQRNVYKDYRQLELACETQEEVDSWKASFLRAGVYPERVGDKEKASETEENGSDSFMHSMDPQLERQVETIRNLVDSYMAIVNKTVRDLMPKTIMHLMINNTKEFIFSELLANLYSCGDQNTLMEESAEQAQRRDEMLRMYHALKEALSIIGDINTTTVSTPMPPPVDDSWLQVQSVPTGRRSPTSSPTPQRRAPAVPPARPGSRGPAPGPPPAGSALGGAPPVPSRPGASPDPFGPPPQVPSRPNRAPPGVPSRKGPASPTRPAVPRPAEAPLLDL

With `N#C/C(=C\c1ccc(O)c(O)c1)C(=O)NCCCNC(=O)/C(C#N)=C/c1ccc(O)c(O)c1` [bis-tyrphostin] as the compound, how does the “morphology of depolarised synaptosomes” value ([1]; depolarised with KCl) read?
Its value is “massive depletion of synaptic vesicles”.

What about the “morphology of unstimulated synaptosomes” value ([1]; unstimulated) of the same compound?
Its value is “no effect on their morphology”.

And the “[α-32P]-GTP binding to dynamin I in the presence of drug” value [2]?
Its value is “not seen to decrease; also recorded: not affected”.

And the “ability to inhibit GTPase activity of dynamin I lacking the PH domain” value [3]?
Its value is “still inhibits”.

And the “inhibition of ΔPH domain dynamin I GTP hydrolysis” value ([3]; at 10 μM)?
Its value is “more than 50%”.

What about the “phospholipid binding and dynamin helix assembly” value [4] of the same compound?
The value was “completely unaffected; also recorded: does not block dynamin binding to lipid”.
